Experimental data published in patent publication US6492427B2, “Methods for treating multiple sclerosis” (priority 1998, dated 2002).
Entries after “also recorded” stand apart in the source; their conditions may differ. Read-outs that look alike come from different tables or passages of the source.

Key:
oligodendroglial cells [1] = test: Total counts of intact methylene blue stained cells; format: cell-based, rat; conditions: BM-D9 (10^−9 M), 24 h
Method: Cells were trophically withdrawn by replacing the media with a serum free, chemically-defined base media (BM) lacking insulin and IGF-I (Bottenstein et al., 1988). The base media consisited of DMEM supplemented with penicillin (50 IU/ml); streptomycin (50 μg/ml); 1 mM sodium pyruvate; 50 μg/ml transferrin; 0.005 μg/ml sodium selenite; 16 μg/ml putrescine; 0.006 μg/ml progesterone and 0.1 mg/ml bovine serum albumin. All the cells were washed with BM twice before exposing them to individual treatment conditions. Control cells were washed and placed in BM supplemented with 2.5 ng/ml IGF-I and 5 μg/ml insulin to form the insulin media (IM).
To study the effects of trophic-like agents on the survival of oligodendroglial […].
Methylene blue (3,7-bis (dimethylamino)-phenothiazin-5-ium chloride), a ribonucleic acid (RNA) binding agent commonly used as an alternative nucleic acid stain, can also be used as a biological staining agent to stain cells in order to observe their morphological features. […]
(§1) Cell counts were performed for 25 randomly chosen 100 power fields on each coverslip. […] Three coverslips was counted for each treatment condition. In subsequent experiments, different cell types (for example, O-2A progenitors, PROLs, OLs and astrocytes) were morphologically identified on each field and were counted separately for experimental series-I and II. […]

ASTs = test: Methylene blue counts of individual cell types: ASTs; format: cell-based, rat; conditions: BM-D9, 24 h
Method: (§2) Methylene blue (3,7-bis (dimethylamino)-phenothiazin-5-ium chloride), a ribonucleic acid (RNA) binding agent commonly used as an alternative nucleic acid stain, can also be used as a biological staining agent to stain cells in order to observe their morphological features. At 24 h, cells were fixed in 2% paraformaldehyde for 15 min at room temperature. Briefly, cells were washed twice with PBS and 100 μl of 1% methylene blue (Mallinckrodt Chemical Co., MO, USA) solution containing 1% AgNO3 was added for 10 min to the wells containing coverslips. Subsequently, the coverslips were washed with two changes of distilled water and absolute ethanol, cleared with xylene and mounted on slides with permount.
as §1, with “coverslip. Two randomly generated coordinates drawn from a uniform distribution of random numbers specified the center of each field. The random numbers were generated on a computer by using Microcal Origin 4.0 program.” for “coverslip.”

OLs = test: Methylene blue counts of individual cell types: OLs; format: cell-based, rat; conditions: BM-D9, 24 h
Method: as §2
as §1, with “coverslip. Two randomly generated coordinates drawn from a uniform distribution of random numbers specified the center of each field. The random numbers were generated on a computer by using Microcal Origin 4.0 program.” for “coverslip.”

oligodendroglial cells [2] = test: In situ DNA end labeling (ApopTag), counts of apoptotic nuclei; format: cell-based, rat; conditions: 6, 12, 15, 18, 24 h, both experimental series
Method: The ApopTag™ method utilizes an ApopTag™ in situ apoptosis detection kit (Oncor, Md., USA), which detects nuclei with, cut 3′-OH ends of DNA. Oligodendrocytes at 16 DIV were treated with BM, BM-D9, IM and IM-D9 for 6, 12, 15, 18 and 24 h. Cells were fixed in 2% paraformaldehyde, followed by three washes in 0.1M PBS and permeabilization with 0.05% Tween-20 in PBS for 10 min at room temperature. Endogenous peroxidase was quenched with 1% H2O2 in PBS for 5 min at room temperature. Coverslips were then covered with 1 X equilibration buffer for 30 min at room temperature and then incubated with terminal deoxynucleotidyl transferase (TdT)/reaction buffer (76 μl of reaction buffer+32 μl of TdT enzyme) for 1 h at 37° C. A stop wash buffer incubation for 30 min at 37° C. was used to terminate the 3′-OH DNA extension reaction. After a PBS wash, the coverslips were incubated with antidigoxigenin peroxidase antibody. After three washes with 0.1M PBS, chromogenic detection was carried out using DAB (1.5 mg/ml) mixed with hydrogen peroxide (H2O2; 0.02% v/v) yielding a brown reaction product. Coverslips were dehydrated in ascending grade alcohol series, cleared with xylene and mounted on slides using a drop of permount. ApopTag™ positive nuclei were randomly counted in triplicate (described in section 2.5), for each of the time points, for experimental series-I and II.

oligodendroglial cells [3] = test: DNA extraction and electrophoresis (DNA ladders); format: cell-based, rat; conditions: BM + 10^−9 M, 18 h after washing on 16 DIV
[4] = system: mitochondrial membrane potential (ΔψM) of oligodendroglial cells; test: CMTMR estimation of mitochondrial membrane potential by confocal microscopy; format: cell-based, rat; conditions: BM + 10^−9 M, 18 h
Method: The ΔψM was assessed by the addition of a lipophilic, potentiometric dye, chloromethyl-tetramethylrhodamine methyl ester (CMTMR, Mitotracker Orange™ Molecular Probes, Eugene, Oreg.). The CMTMR dye reacts with the thiol groups on proteins and peptides to form aldehyde fixable conjugates. Entry of the negatively charged mitochondrial matrix compartment is proportional to the difference in the membrane potential. Therefore, the CMTMR fluorescence labels the mitochondrial membrane potential generated due to the negativity difference between the mitochondrial matrix and the outside of the mitochondria. Upon cell fixation, CMTMR remains in the mitochondria and is not washed out unlike other mitochondrial potentiometric dyes like rhodamine123.
Oligodendrocytes at 16 DIV were placed in trophically deprived BM for 18 h or treated with BM-D9 or BM-Ds9. […] The cells were incubated in CMTMR at 37° C. for 15 min. The cells were then fixed with 4% cold paraformaldehyde on ice for 30 min and washed twice with 0.1M PBS. Consequently, the coverslips were mounted on glass slides with Aquamount (Gurr, England).
Individual mitochondria labeled with CMTMR were resolved by confocal microscopy. A Leica true confocal scanning (TCS) 4D microscope coupled to an argon-krypton laser (Omnichrome, USA) was used for cell imaging. A pinhole size of 20 with an excitation filter wavelength of 568 nm and an emission filter wavelength of 590 nm was used to image the CMTMR labeled mitochondria. Each field of the coverslip was imaged using an oil-immersion, 100 X, 1.3 N.A. objective at 512 by 512 by 8 bits per pixel resolution, background offset of −1 and line averaged 32 times in bi-directional line scan mode. Care was taken not to exceed the dynamic range of the gray value display. The confocal images obtained were saved on an optical drive in a tagged image file format (TIFF).
Fluorescence intensity of individual mitochondria was measured using the Metamorph™ program. Metamorph™ compiles measurements of objects in a 8-bit image ranging from gray values 0 (background) and 255. In order to obtain fluorescence intensity measures, a rectangular region tool of 2×2 pixels was used to measure two randomly selected areas within each mitochondrion. A total of ten mitochondria obtained equally from all the regions of each cell were measured within each image. About 20 images were analyzed for each treatment condition thereby giving a sum of about 400 mitochondrial fluorescence intensity measures. The raw values were then further graphed and analyzed with the Microcal Origin 4.1 program. Frequency count was performed on the data, which classified the data in ordered bins. A frequency distribution was obtained with lower bin value set at 0 and higher bin value set at 260.

CA1 hippocampal neurons = conditions: cited from earlier work

## C#CCN(C)[C@H](C)Cc1ccccc1 [(−)-deprenyl, R-(−)-N,α-Dimethyl-N-2-propynyl phenethylamine]
Oligodendroglial cells [1]; experimental series-I
  number of intact methylene blue stained cells, % of those in BM: 576%
Oligodendroglial cells [1]; experimental series-II
  number of intact methylene blue stained cells, % of those in BM: 255%
ASTs; experimental series II
  AST cell numbers compared to those in BM: 132%
ASTs; experimental series-I
  AST cell numbers compared to those in BM: 570%
OLs; experimental series II
  OL cell numbers compared to those in BM: 291%
OLs; experimental series-I
  OL cell numbers compared to those in BM: 565.0%
Oligodendroglial cells [2]; 10^−9 M added to IM
  number of ApopTag positive nuclei: did not significantly change the number of ApopTag™ positive nuclei
Oligodendroglial cells [2]; 10^−9 M added to base media (BM)
  number of ApopTag positive nuclei: significantly decreased the numbers of ApopTag™ nuclei in both experimental series
Oligodendroglial cells [2]; 10^−9 M added to base media (BM), listed as (−)-Deprenyl
  number of ApopTag positive nuclei: reduced the incidence of apoptotic nuclei at all the time points
Oligodendroglial cells [3]
  DNA laddering on electrophoresis gels: did not show detectable laddering
[4]
  mitochondrial CMTMR fluorescence distributions (ΔψM) in ASTs, PROLs and OLs: not significantly different to those found for IM; also recorded: prevented the decrease in ΔψM
CA1 hippocampal neurons; 0.25 mg/kg, days 3 or 7 (Lahtinen et al., 1997)
  CA1 hippocampal neuronal survival: significant increase in survival at both time points
CA1 hippocampal neurons; 10 mg/kg daily from 1-2 hours after 5 minutes occlusion, day 4 (Ballabriga et al., 1997)
  CA1 hippocampal neuronal survival: no increase in survival
